Reference: the Kinase Knowledgebase extract (Sharma et al. 2016)

What was measured:
PIK3CD (Human) [1] = target: PIK3CD (Human) (UniProt O00329); assay: Assessment of PIK3CD Kinase Activity in RAJI Cells
PIK3CG (human) = PIK3CG (human) (UniProt P48736); assay: Assessment of PIK3CG Kinase Activity
PIK3CD (Human) [2] = target: PIK3CD (Human) (UniProt O00329); assay: Assessment of PIK3CD Kinase Activity
PIK3CB (Human) = PIK3CB (Human) (UniProt P42338); assay: Assessment of PIK3CB Kinase Activity
PIK3CA (human) = PIK3CA (human) (UniProt P42336); assay: Assessment of PIK3CA Kinase Activity
Sequence of PIK3CA (human) (P42336 whole entry, looked up): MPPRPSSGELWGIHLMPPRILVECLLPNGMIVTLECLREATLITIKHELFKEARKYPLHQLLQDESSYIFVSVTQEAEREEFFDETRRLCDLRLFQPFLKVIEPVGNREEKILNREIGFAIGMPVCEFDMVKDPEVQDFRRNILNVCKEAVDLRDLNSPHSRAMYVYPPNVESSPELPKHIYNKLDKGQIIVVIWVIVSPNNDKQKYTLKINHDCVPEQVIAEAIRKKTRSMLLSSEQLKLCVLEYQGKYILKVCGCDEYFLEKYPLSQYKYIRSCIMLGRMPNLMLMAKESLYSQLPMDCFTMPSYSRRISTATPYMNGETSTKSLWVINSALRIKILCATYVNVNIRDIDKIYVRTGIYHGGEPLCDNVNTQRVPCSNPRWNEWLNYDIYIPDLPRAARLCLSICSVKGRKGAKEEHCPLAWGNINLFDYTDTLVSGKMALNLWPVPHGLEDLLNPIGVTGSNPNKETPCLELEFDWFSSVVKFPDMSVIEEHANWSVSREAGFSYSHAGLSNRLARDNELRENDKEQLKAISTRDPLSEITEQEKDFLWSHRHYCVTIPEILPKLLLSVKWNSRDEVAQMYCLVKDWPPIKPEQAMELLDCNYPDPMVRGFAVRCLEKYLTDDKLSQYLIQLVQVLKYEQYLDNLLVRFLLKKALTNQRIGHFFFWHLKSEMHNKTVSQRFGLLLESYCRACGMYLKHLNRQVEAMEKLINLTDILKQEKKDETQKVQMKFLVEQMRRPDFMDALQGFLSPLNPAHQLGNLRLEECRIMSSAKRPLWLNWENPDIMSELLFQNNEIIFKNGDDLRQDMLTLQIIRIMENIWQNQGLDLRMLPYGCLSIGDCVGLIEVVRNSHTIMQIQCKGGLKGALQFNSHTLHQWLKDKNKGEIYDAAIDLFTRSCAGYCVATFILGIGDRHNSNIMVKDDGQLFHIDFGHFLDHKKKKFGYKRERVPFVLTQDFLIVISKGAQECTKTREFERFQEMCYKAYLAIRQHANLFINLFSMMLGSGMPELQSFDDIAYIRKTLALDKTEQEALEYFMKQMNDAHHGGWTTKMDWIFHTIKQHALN

Sequence of PIK3CB (Human) (P42338 whole entry, looked up): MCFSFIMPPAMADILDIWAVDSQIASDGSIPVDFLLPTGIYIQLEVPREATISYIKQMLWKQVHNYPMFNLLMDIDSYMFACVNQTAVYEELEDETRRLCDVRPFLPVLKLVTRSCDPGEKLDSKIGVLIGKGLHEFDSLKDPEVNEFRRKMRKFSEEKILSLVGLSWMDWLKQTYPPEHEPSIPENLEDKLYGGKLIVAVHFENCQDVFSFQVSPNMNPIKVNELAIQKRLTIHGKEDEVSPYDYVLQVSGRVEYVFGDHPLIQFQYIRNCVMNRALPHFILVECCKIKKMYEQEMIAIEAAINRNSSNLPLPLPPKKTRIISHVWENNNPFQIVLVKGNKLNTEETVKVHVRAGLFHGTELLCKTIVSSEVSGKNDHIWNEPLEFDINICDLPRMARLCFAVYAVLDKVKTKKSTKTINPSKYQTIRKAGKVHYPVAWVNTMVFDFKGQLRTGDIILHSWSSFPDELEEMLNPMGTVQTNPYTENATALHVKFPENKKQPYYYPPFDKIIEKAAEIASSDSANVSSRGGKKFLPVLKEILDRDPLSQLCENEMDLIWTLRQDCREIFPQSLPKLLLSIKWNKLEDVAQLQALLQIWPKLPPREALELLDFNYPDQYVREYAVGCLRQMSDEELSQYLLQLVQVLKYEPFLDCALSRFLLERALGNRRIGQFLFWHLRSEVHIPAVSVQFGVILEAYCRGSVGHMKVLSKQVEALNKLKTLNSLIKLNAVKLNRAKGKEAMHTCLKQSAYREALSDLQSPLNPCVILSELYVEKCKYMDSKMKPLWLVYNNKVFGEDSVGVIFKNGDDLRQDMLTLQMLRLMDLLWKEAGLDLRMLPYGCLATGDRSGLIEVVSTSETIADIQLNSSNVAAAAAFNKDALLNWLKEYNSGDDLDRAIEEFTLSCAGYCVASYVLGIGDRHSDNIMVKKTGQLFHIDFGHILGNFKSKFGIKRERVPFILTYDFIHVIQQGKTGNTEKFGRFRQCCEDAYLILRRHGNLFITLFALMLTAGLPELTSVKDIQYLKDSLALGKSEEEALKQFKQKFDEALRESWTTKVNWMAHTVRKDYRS
Sequence of PIK3CD (Human) (O00329 whole entry, looked up): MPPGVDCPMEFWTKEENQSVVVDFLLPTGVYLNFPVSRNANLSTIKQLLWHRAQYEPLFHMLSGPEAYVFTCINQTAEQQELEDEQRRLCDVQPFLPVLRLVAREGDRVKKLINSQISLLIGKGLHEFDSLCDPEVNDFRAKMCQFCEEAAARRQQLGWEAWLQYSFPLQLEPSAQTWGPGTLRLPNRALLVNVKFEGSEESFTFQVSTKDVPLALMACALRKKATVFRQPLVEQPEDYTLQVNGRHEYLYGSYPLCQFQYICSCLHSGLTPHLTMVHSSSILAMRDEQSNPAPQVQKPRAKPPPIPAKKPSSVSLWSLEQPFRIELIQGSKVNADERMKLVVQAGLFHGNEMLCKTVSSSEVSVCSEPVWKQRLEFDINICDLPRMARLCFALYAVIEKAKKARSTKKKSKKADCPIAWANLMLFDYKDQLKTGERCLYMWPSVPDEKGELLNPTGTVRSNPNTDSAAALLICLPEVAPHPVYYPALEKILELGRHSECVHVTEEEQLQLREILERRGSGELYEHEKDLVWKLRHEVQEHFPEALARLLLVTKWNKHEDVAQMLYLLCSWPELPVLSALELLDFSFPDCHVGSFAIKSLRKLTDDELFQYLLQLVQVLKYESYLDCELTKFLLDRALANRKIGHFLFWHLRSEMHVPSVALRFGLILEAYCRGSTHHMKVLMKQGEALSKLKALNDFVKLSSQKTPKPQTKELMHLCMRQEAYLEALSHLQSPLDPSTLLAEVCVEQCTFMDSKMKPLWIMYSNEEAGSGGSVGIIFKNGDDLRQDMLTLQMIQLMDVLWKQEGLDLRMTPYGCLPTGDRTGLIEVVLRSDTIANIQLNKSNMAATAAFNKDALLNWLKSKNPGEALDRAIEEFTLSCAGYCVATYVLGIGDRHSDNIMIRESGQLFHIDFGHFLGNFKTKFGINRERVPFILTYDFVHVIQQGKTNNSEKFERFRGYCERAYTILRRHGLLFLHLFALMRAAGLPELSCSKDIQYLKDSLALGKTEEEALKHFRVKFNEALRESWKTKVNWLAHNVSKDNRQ
Sequence of PIK3CG (human) (P48736 whole entry, looked up): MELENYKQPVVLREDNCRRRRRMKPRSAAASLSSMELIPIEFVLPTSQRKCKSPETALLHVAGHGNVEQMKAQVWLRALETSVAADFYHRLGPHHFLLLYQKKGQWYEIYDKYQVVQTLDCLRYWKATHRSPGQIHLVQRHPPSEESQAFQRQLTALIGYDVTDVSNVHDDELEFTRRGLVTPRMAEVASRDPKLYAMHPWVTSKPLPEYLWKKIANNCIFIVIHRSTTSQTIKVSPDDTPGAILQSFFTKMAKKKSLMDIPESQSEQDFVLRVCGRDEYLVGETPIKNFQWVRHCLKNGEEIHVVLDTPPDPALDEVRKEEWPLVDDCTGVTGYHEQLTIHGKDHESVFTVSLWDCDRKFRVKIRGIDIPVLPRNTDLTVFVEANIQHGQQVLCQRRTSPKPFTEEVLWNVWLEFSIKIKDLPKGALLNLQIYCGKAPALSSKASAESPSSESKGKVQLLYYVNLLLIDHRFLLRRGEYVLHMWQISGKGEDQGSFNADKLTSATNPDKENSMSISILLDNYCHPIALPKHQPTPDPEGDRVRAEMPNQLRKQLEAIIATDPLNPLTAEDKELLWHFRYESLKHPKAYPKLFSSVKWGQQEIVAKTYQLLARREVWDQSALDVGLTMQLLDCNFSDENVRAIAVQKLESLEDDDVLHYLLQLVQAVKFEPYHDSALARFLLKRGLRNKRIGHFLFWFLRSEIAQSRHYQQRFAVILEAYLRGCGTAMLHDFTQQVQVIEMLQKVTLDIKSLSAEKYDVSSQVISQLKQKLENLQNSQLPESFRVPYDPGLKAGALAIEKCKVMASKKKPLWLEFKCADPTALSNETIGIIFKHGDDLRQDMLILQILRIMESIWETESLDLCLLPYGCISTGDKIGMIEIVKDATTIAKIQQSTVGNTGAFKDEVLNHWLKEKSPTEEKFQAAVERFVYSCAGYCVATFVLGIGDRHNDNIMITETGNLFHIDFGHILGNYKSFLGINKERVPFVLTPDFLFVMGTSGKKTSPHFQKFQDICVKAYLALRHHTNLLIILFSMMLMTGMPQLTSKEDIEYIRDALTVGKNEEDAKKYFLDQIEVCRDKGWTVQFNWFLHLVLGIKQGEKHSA

IC50 (PIK3CD (Human) [1]) [nM] | IC50 (PIK3CG (human)) [nM] | IC50 (PIK3CD (Human) [2]) [nM] | IC50 (PIK3CB (Human)) [nM] | IC50 (PIK3CA (human)) [nM] | SMILES
< 100 | < 100 | 100 to 1000 |  |  | C[C@H](Nc1nc(N)ncc1-c1cccc(S(C)(=O)=O)c1)c1cc2cccc(Cl)c2c(=O)n1-c1ccccc1
< 100 | 100 to 1000 | < 100 |  |  | CCOc1nc(-c2cnc(N)nc2N[C@@H](C)c2cc3cccc(-c4cnc(OC)nc4)c3c(=O)n2-c2ccccc2)cs1
< 100 | 100 to 1000 | < 100 | > 10000 |  | COc1ncc(-c2cccc3cc([C@H](C)Nc4nc(N)ncc4C#N)n(C(C)C)c(=O)c23)cn1
< 100 | < 100 | 100 to 1000 | > 10000 |  | COc1ccc(-c2cnc(N)nc2N[C@@H](C)c2cc3cccc(Cl)c3c(=O)n2-c2ccccc2)cn1
< 100 | < 100 | < 100 |  | 100 to 1000 | COc1cc(-c2cccc3cc([C@H](C)Nc4nc(N)ncc4C#N)n(-c4ccccc4)c(=O)c23)ccn1
< 100 | < 100 | < 100 |  | > 10000 | Cc1ccc(NS(C)(=O)=O)cc1-c1cnc(N)nc1N[C@@H](C)c1cc2cccc(Cl)c2c(=O)n1-c1ccccc1
< 100 | < 100 | 100 to 1000 |  |  | C[C@H](Nc1nc(N)ncc1-c1cccc(N(C)S(C)(=O)=O)c1)c1cc2cccc(Cl)c2c(=O)n1-c1ccccc1
< 100 |  |  | > 10000 |  | C[C@H](Nc1nc(N)ncc1C(=O)C1CC1)c1cc2cccc(Cl)c2c(=O)n1-c1ccccc1
< 100 | 100 to 1000 |  |  | > 10000 | C[C@H](Nc1nc(N)ncc1C#N)c1cc2cccc(Cl)c2c(=O)n1-c1c(F)cccc1F
< 100 | 100 to 1000 | 100 to 1000 | > 10000 |  | C[C@H](Nc1ncncc1-c1cccc(S(=O)(=O)N(C)C)c1)c1cc2cccc(Cl)c2c(=O)n1-c1ccccc1
< 100 | 100 to 1000 | 100 to 1000 | > 10000 |  | CC(C)C(=O)c1cnc(N)nc1N[C@@H](C)c1cc2cccc(Cl)c2c(=O)n1-c1ccccc1
< 100 | < 100 | < 100 |  | > 10000 | COc1ncc(-c2cnc(N)nc2N[C@@H](C)c2cc3cccc(Cl)c3c(=O)n2-c2ccccc2)s1
< 100 | < 100 |  |  | > 10000 | C[C@H](Nc1nc(N)ncc1C#N)c1cc2cccc(Cl)c2c(=O)n1-c1ccc(F)c(F)c1
< 100 | > 10000 | 100 to 1000 | 100 to 1000 |  | CCS(=O)(=O)c1cccc(-c2cnc(N)nc2N[C@@H](C)c2cc3cccc(Cl)c3c(=O)n2-c2ccccc2)c1
< 100 | < 100 | < 100 |  |  | C[C@H](Nc1nc(N)ncc1-c1cccc(S(=O)(=O)C2CC2)c1)c1cc2cccc(Cl)c2c(=O)n1-c1ccccc1
< 100 | 100 to 1000 | 100 to 1000 |  |  | C[C@H](Nc1nc(N)ncc1-c1cccc(S(C)(=O)=O)c1)c1cc2cccc(C(F)(F)F)c2c(=O)n1-c1ccccc1
< 100 | < 100 |  |  | > 10000 | C[C@H](Nc1nc(N)ncc1C#N)c1cc2cccc(Cl)c2c(=O)n1C1CC1
< 100 | < 100 | < 100 |  |  | COc1ncc(-c2cccc3cc([C@H](C)Nc4nc(N)ncc4-c4cncs4)n(-c4ccccc4)c(=O)c23)cn1
< 100 |  | 100 to 1000 | > 10000 |  | COc1ncc(-c2cccc3cc([C@H](C)Nc4ncnc(N)c4C#N)n(-c4ccon4)c(=O)c23)cn1
< 100 |  | 100 to 1000 | > 10000 |  | COC(=O)c1cccc(-n2c([C@H](C)Nc3nc(N)ncc3C#N)cc3cccc(Cl)c3c2=O)c1

IC50 (PIK3CD (Human) [1]) [nM] | IC50 (PIK3CG (human)) [nM] | IC50 (PIK3CD (Human) [2]) [nM] | IC50 (PIK3CB (Human)) [nM] | IC50 (PIK3CA (human)) [nM] | SMILES
< 100 | < 100 | 100 to 1000 |  | > 10000 | COc1cccc(-n2c([C@H](C)Nc3nc(N)ncc3C#N)cc3cccc(Cl)c3c2=O)c1
< 100 | 100 to 1000 | < 100 |  |  | N#Cc1cnc(N)nc1NCc1cc2cccc(Cl)c2c(=O)n1-c1ccccc1
< 100 | < 100 | < 100 |  |  | C[C@H](Nc1nc(N)ncc1-c1cccc(NS(C)(=O)=O)c1)c1cc2cccc(Cl)c2c(=O)n1-c1ccccc1
< 100 | < 100 | < 100 |  | > 10000 | C[C@H](Nc1nc(N)ncc1-c1cnc(S(C)(=O)=O)s1)c1cc2cccc(Cl)c2c(=O)n1-c1ccccc1
< 100 | 100 to 1000 |  |  | > 10000 | C[C@H](Nc1nc(N)ncc1-c1ccc(S(C)(=O)=O)nc1)c1cc2cccc(Cl)c2c(=O)n1-c1ccccc1
 | < 100 | < 100 | < 100 | < 100 | C[C@H](Nc1nc(N)ncc1-c1csc(S(C)(=O)=O)n1)c1cc2cccc(Cl)c2c(=O)n1-c1ccccc1
 | < 100 | < 100 | 100 to 1000 | 100 to 1000 | CSc1ncc(-c2cnc(N)nc2N[C@@H](C)c2cc3cccc(Cl)c3c(=O)n2-c2ccccc2)s1
 | > 10000 | > 10000 | > 10000 | > 10000 | C[C@H](Nc1cc(C(F)(F)F)nc(N)n1)c1cc2cccc(Cl)c2c(=O)n1-c1ccccc1
 | < 100 | < 100 | > 10000 | 100 to 1000 | C[C@H](Nc1nc(N)ncc1C#N)c1cc2cccc(-c3cncc(N(C)C)c3)c2c(=O)n1-c1ccccc1
 | < 100 | < 100 | 100 to 1000 | 100 to 1000 | COc1cncc(-c2cccc3cc([C@H](C)Nc4nc(N)ncc4C#N)n(C4CC4)c(=O)c23)c1
< 100 | < 100 |  |  | > 10000 | COc1cc(-n2c([C@H](C)Nc3nc(N)ncc3C#N)cc3cccc(Cl)c3c2=O)ccc1F
< 100 | 100 to 1000 | < 100 |  |  | CC(C)n1c([C@H](C)Nc2ncnc(N)c2C#N)cc2cccc(Cl)c2c1=O
 | < 100 | < 100 | > 10000 | > 10000 | COc1ncc(-c2cccc3cc([C@H](C)Nc4nc(N)ncc4C#N)n(-c4cccc(F)c4)c(=O)c23)cn1
< 100 | < 100 |  |  |  | C[C@H](Nc1nc(N)ncc1C#N)c1cc2cccc(-c3cncc(NS(C)(=O)=O)c3)c2c(=O)n1-c1ccccc1
 | 100 to 1000 | < 100 | > 10000 | > 10000 | C[C@H](Nc1nc(N)ncc1C#N)c1cc2cccc(-c3cccc(O)n3)c2c(=O)n1-c1ccccc1
 | < 100 | < 100 | 100 to 1000 | 100 to 1000 | C[C@H](Nc1nc(N)ncc1C#N)c1cc2cccc(-c3cnc4[nH]ccc4c3)c2c(=O)n1-c1cccc(F)c1
 | < 100 | < 100 | < 100 | 100 to 1000 | C[C@H](Nc1ncnc(N)c1[N+](=O)[O-])c1cc2cccc(Cl)c2c(=O)n1-c1ccccc1
 | < 100 | < 100 | 100 to 1000 | < 100 | COc1cc(-c2cccc3cc([C@H](C)Nc4nc(N)nc(C)c4C#N)n(-c4ccccc4)c(=O)c23)ccn1
< 100 | 100 to 1000 |  |  |  | C[C@H](Nc1nc(N)ncc1-c1cncc(S(C)(=O)=O)c1)c1cc2cccc(Cl)c2c(=O)n1-c1ccccc1
< 100 | 100 to 1000 |  |  |  | C[C@H](Nc1nc(N)ncc1C#N)c1cc2cccc(-c3ccc(=O)n(C)c3)c2c(=O)n1-c1ccon1
